Reference: patent US9790228B2, “Heterocyclic kinase inhibitors” (Intellikine LLC, priority 2008, dated 2017)

Key:
PI3K/Akt/mTor signaling = test: Kinase signaling in blood (phosflow); type: cell-based; details: anti-CD3 stimulated splenocytes or PBMC
Description: PI3K/Akt/mTor signaling is measured in blood cells using the phosflow method (Methods Enzymol. 2007; 434:131-54). The advantage of this method is that it is by nature a single cell assay so that cellular heterogeneity can be detected rather than population averages. This allows concurrent distinction of signaling states in different populations defined by other markers. Phosflow is also highly quantitative. To test the effects of one or more compounds disclosed herein, unfractionated splenocytes, or peripheral blood mononuclear cells are stimulated with anti-CD3 to initiate T-cell receptor signaling. The cells are then fixed and stained for surface markers and intracellular phosphoproteins.
Similarly, aliquots of whole blood are incubated for 15 minutes with vehicle (e.g. 0.1% DMSO) or kinase inhibitors at various concentrations, before addition of stimuli to crosslink the T cell receptor (TCR) (anti-CD3 with secondary antibody) or the B cell receptor (BCR) using anti-kappa light chain antibody (Fab′2 fragments). After approximately 5 and 15 minutes, samples are fixed (e.g. with cold 4% paraformaldehyde) and used for phosflow. […] The level of phosphrylation of kinase substrates such as Akt and S6 are then measured by incubating the fixed cells with labeled antibodies specific to the phosphorylated isoforms of these proteins. The population of cells are then analyzed by flow cytometry.

[1] = PBS pH 7.4, 24 hours, 37° C.; cited from earlier work
lupus disease model mice = details: B6.Slelz.Sle3z model; cited from earlier work

CO[C@H]1C[C@@H]2CC[C@@H](C)[C@@](O)(O2)C(=O)C(=O)N2CCCC[C@H]2C(=O)O[C@H]([C@H](C)C[C@@H]2CC[C@@H](O)[C@H](OC)C2)CC(=O)[C@H](C)/C=C(\C)[C@@H](O)[C@@H](OC)C(=O)[C@H](C)C[C@H](C)/C=C/C=C/C=C/1C [rapamycin]
Akt phosphorylation (PI3K/Akt/mTor signaling): enhances Akt phosphorylation | S6 phosphorylation (PI3K/Akt/mTor signaling): inhibits S6 phosphorylation

O=C(O)CCCc1ccc(N(CCCl)CCCl)cc1 [chlorambucil]
chemical stability [1]: largely hydrolyzed

CO[C@H]1C[C@@H]2CC[C@@H](C)[C@@](O)(O2)C(=O)C(=O)N2CCCC[C@H]2C(=O)O[C@H]([C@H](C)C[C@@H]2CC[C@@H](OCCO)[C@H](OC)C2)CC(=O)[C@H](C)/C=C(\C)[C@@H](O)[C@@H](OC)C(=O)[C@H](C)C[C@H](C)/C=C/C=C/C=C/1C [RAD001]
lupus symptoms (lupus disease model mice): ameliorate lupus symptoms
